Assay results from ChEMBL document CHEMBL1123765, “Psychotropic agents: synthesis and antipsychotic activity of substituted beta-carbolines” (J Med Chem, 1987).

Legend:
[1] = test system: Rattus norvegicus; assay: Antipsychotic activity was assessed by ability to block response of rats trained to avoid an electrical shock (inhibition of self-jump and/or discrete trial conditioned avoidance response(CAR) upon ip administration; type: functional
[2] = target: T1, D(2) dopamine receptor (Rattus norvegicus, UniProt P61169); assay: In vitro binding affinity for Dopamine receptor D2 of rat striatum labeled with [3H]-spiperone was determined
[3] = test system: Rattus norvegicus; assay: Antipsychotic activity was assessed by ability to block response of rats trained to avoid an electrical shock (inhibition of self-jump and/or discrete trial conditioned avoidance response(CAR) upon ip administration; value ranges from 19-78; type: functional
[4] = target: D(2) dopamine receptor (Rattus norvegicus) (UniProt P61169); assay: In vitro binding affinity for Dopamine receptor D2 of rat nucleus accumbens labeled with [3H]spiperone was determined at 1 uM concentration
[5] = target: D(2) dopamine receptor (Rattus norvegicus) (UniProt P61169); assay: In vitro binding affinity for Dopamine receptor D2 of rat striatum labeled with [3H]-spiperone was determined at 10 uM concentration; type: tissue-based
[6] = target: D(2) dopamine receptor (Rattus norvegicus) (UniProt P61169); assay: In vitro binding affinity for Dopamine receptor D2 of rat nucleus accumbens labeled with [3H]spiperone was determined at 10 uM concentration
[7] = test system: Rattus norvegicus; assay: Antipsychotic activity was assessed by ability to block response of rats trained to avoid an electrical shock (inhibition of self-jump and/or discrete trial conditioned avoidance response(CAR) upon po administration; value ranges from 30-33; type: functional
[8] = test system: Rattus norvegicus; assay: Antipsychotic activity was assessed by ability to block response of rats trained to avoid an electrical shock (inhibition of self-jump and/or discrete trial conditioned avoidance response(CAR) upon ip administration; value ranges from 9-24; type: functional
[9] = test system: Rattus norvegicus; assay: Antipsychotic activity was assessed by ability to block response of rats trained to avoid an electrical shock (inhibition of self-jump and/or discrete trial conditioned avoidance response(CAR) upon ip administration; value ranges from 15-33; type: functional
[10] = test system: Rattus norvegicus; assay: Antipsychotic activity was assessed by ability to block response of rats trained to avoid an electrical shock (inhibition of self-jump and/or discrete trial conditioned avoidance response(CAR) upon po administration; value ranges from 8-17; type: functional
[11] = test system: Rattus norvegicus; assay: Antipsychotic activity was assessed by ability to block response of rats trained to avoid an electrical shock (inhibition of self-jump and/or discrete trial conditioned avoidance response(CAR) upon ip administration; value ranges from 6.5-7.5; type: functional
[12] = test system: Rattus norvegicus; assay: Antipsychotic activity was assessed by ability to block response of rats trained to avoid an electrical shock (inhibition of self-jump and/or discrete trial conditioned avoidance response(CAR) upon ip administration; value ranges from 30-62; type: functional
[13] = test system: Rattus norvegicus; assay: Antipsychotic activity was assessed by ability to block response of rats trained to avoid an electrical shock (inhibition of self-jump and/or discrete trial conditioned avoidance response(CAR) upon ip administration; value ranges from 7-18; type: functional
[14] = target: T1, D(2) dopamine receptor; assay: In vitro binding affinity for Dopamine receptor D2 of rat nucleus accumbens labeled with [3H]spiperone was determined at 10 uM concentration.
[15] = target: D(2) dopamine receptor (Rattus norvegicus) (UniProt P61169); assay: In vitro binding affinity for Dopamine receptor D2 of rat nucleus accumbens labeled with [3H]-spiperone was determined at 1 uM concentration
[16] = target: D(2) dopamine receptor (Rattus norvegicus) (UniProt P61169); assay: In vitro binding affinity for Dopamine receptor D2 of rat striatum labeled with [3H]spiperone was determined at 10 uM concentration; type: tissue-based
[17] = test system: Rattus norvegicus; assay: Antipsychotic activity was assessed by ability to block response of rats trained to avoid an electrical shock (inhibition of self-jump and/or discrete trial conditioned avoidance response (CAR) upon ip administration.* >40 indicates insignificant aactivity; type: functional
[18] = test system: Rattus norvegicus; assay: Antipsychotic activity was assessed by ability to block response of rats trained to avoid an electrical shock (inhibition of self-jump and/or discrete trial conditioned avoidance response(CAR) upon po administration; value ranges from 0.1-3.5; type: functional
[19] = test system: Rattus norvegicus; assay: Antipsychotic activity was assessed by ability to block response of rats trained to avoid an electrical shock (inhibition of self-jump and/or discrete trial conditioned avoidance response(CAR) upon ip administration; value ranges from 0.12-0.33; type: functional
[20] = test system: Rattus norvegicus; assay: Antipsychotic activity was assessed by ability to block response of rats trained to avoid an electrical shock (inhibition of self-jump and/or discrete trial conditioned avoidance response(CAR) upon po administration; value ranges from 2-3; type: functional
[21] = test system: Rattus norvegicus; assay: Antipsychotic activity was assessed by ability to block response of rats trained to avoid an electrical shock (inhibition of self-jump and/or discrete trial conditioned avoidance response(CAR) upon ip administration; value ranges from 2-7; type: functional
[22] = test system: Rattus norvegicus; assay: Antipsychotic activity was assessed by ability to block response of rats trained to avoid an electrical shock (inhibition of self-jump and/or discrete trial conditioned avoidance response(CAR) upon ip administration; value ranges from 33-37; type: functional
[23] = test system: Rattus norvegicus; assay: Antipsychotic activity was assessed by ability to block response of rats trained to avoid an electrical shock (inhibition of self-jump and/or discrete trial conditioned avoidance response(CAR) upon ip administration.; type: functional
[24] = test system: Rattus norvegicus; assay: Antipsychotic activity was assessed by ability to block response of rats trained to avoid an electrical shock (inhibition of self-jump and/or discrete trial conditioned avoidance response(CAR) upon ip administration; value ranges from 14-49; type: functional
[25] = test system: Rattus norvegicus; assay: Antipsychotic activity was assessed by ability to block response of rats trained to avoid an electrical shock (inhibition of self-jump and/or discrete trial conditioned avoidance response(CAR) upon ip administration; value ranges from 15-22; type: functional

Sequence of D(2) dopamine receptor (Rattus norvegicus) (P61169 whole entry): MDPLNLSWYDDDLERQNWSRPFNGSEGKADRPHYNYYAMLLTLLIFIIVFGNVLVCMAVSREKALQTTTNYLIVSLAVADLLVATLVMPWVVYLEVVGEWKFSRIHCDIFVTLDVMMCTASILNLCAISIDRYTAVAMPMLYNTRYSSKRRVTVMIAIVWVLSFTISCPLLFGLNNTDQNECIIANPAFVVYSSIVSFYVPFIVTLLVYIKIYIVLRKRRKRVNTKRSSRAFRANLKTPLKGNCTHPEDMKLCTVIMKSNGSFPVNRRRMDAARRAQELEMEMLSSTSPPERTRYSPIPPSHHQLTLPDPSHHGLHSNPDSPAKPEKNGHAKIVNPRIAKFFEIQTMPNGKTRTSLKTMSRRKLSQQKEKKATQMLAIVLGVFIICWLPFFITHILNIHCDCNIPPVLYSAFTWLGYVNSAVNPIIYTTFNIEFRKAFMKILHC
T1 sequence (P61169 whole entry): as above

inhibition [4]	SMILES	AB50 [1]	further results
	Fc1ccc2[nH]c3c(c2c1)CCN(CCc1ccc2ccccc2n1)C3	40 mg/kg	
	c1ccc2nc(CCCCN3CCc4c([nH]c5ccccc45)C3)ccc2c1		Ki [2]: 139 nM; AB50 [3]: 31 mg/kg
7%	c1ccc2c(N3CCc4c([nH]c5ccccc45)C3)ccnc2c1	>40 mg/kg	
	Fc1ccc(C(c2ccc(F)cc2)N2CCN(CCCN3CCc4c([nH]c5ccccc45)C3)CC2)cc1	>40 mg/kg	
	Clc1cccc(N2CCN(CCCn3c4c(c5ccccc53)CCN(CCCc3cccnc3)C4)CC2)c1	>40 mg/kg	
26%	c1ccc2c(CN3CCc4c([nH]c5ccccc45)C3)ccnc2c1	>40 mg/kg	
7%	c1ccc2nc(CN3CCc4c([nH]c5ccccc45)C3)ccc2c1	48 mg/kg	inhibition [5]: 7%
	Fc1ccc(C(CCCN2CCc3c([nH]c4ccccc34)C2)c2ccc(F)cc2)cc1	>40 mg/kg	
0%	CN(C)CCCn1c2c(c3ccccc31)CCN(CCCc1ccncc1)C2	>40 mg/kg	
	OC1(c2ccc(Cl)cc2)CCN(CCCn2c3c(c4ccccc42)CCN(CCc2ccccn2)C3)CC1	>40 mg/kg	
75%	Fc1ccc2[nH]c3c(c2c1)CCN(CCc1ccccn1)C3	40 mg/kg	
	CN(C)CCCn1c2c(c3ccccc31)CCN(CCCc1cccnc1)C2	>40 mg/kg	inhibition [6]: 17%
38%	CC1CN(CCCN2CCc3c([nH]c4ccccc34)C2)CC(C)N1 (configuration not stated)	>40 mg/kg	
	O=C(CCCn1c2c(c3ccccc31)CCN(CCc1ccccn1)C2)c1ccc(F)cc1	>40 mg/kg	
	Clc1ccc2[nH]c3c(c2c1)CCN(CCc1ccc2ccccc2n1)C3	>40 mg/kg	
15%	COc1cccc(OC)c1CN1CCc2c([nH]c3ccccc23)C1		inhibition [6]: 27%
	c1ccc(Cn2c3c(c4ccccc42)CCN(CCc2ccccn2)C3)cc1	>40 mg/kg	
	c1ccc2c3c([nH]c2c1)CN(CCCCc1ccncc1)CC3		Ki [2]: 525 nM; AB50 [7]: 31 mg/kg; AB50 [8]: 14 mg/kg
6%	Cn1c(CN2CCc3c([nH]c4ccccc34)C2)nc2ccccc21		
	c1cncc(CCCN2CCc3c([nH]c4ccccc34)C2)c1		AB50 [9]: 21 mg/kg
	CN1CCN(C2=Nc3cc(Cl)ccc3Nc3ccccc32)CC1 [CLOZAPINE]		AB50 [10]: 11 mg/kg; AB50 [11]: 7 mg/kg
	C[C@@H]1CN(CCCn2c3ccccc3c3ccccc32)C[C@H](C)N1 [RIMCAZOLE]		AB50 [12]: 39 mg/kg
	Fc1ccc2[nH]c3c(c2c1)CCN(CCCCc1ccnc2ccccc12)C3	>40 mg/kg	
	c1ccc2nc(CCN3CCc4c([nH]c5ccccc45)C3)ccc2c1		Ki [2]: 211 nM; AB50 [13]: 10 mg/kg

inhibition [4]	SMILES	AB50 [1]	further results
6%	O=C(c1nccc2ccccc12)N1CCc2c([nH]c3ccccc23)C1	>40 mg/kg	
15%	COc1ccc2[nH]c3c(c2c1)CCN(Cc1c(OC)cccc1OC)C3		inhibition [6]: 27%
	c1cncc(CCCN2CCc3c(n(CCCN4CCCCC4)c4ccccc34)C2)c1	>40 mg/kg	inhibition [6]: 26%
	Fc1ccc2[nH]c3c(c2c1)CCN(CCCCc1ccncc1)C3	>40 mg/kg	Ki [14]: 720 nM
	FC(F)(F)c1cccc(N2CCN(CCCN3CCc4c([nH]c5ccccc45)C3)CC2)c1	>40 mg/kg	
	COc1ccc2[nH]c3c(c2c1)CCN(CCc1ccncc1)C3		inhibition [15]: 53%
	Clc1cccc(N2CCN(CCCN3CCc4c([nH]c5ccccc45)C3)CC2)c1	>40 mg/kg	
51%	Clc1ccc2[nH]c3c(c2c1)CCN(CCCCc1ccncc1)C3	>40 mg/kg	
13%	c1ccc2c3c([nH]c2c1)CN(Cc1ccncc1)CC3		inhibition [16]: 27%
13%	c1ccc2c3c([nH]c2c1)CN(CCc1cnccn1)CC3		
	FC(F)(F)c1ccc(CN2CCN(CCCN3CCc4c([nH]c5ccccc45)C3)CC2)cc1	>40 mg/kg	
	Clc1cccc(N2CCN(CCCn3c4c(c5ccccc53)CCN(CCc3ccccn3)C4)CC2)c1	>40 mg/kg	
	Clc1ccc2[nH]c3c(c2c1)CCN(CCc1ccncc1)C3		AB50 [17]: >40 mg/kg
	O=C(CCCN1CCC(O)(c2ccc(Cl)cc2)CC1)c1ccc(F)cc1 [HALOPERIDOL]		AB50 [18]: 0.2 mg/kg; AB50 [19]: 0.2 mg/kg
	CN(C)CCCN1c2ccccc2Sc2ccc(Cl)cc21 [CHLORPROMAZINE]		AB50 [20]: 3 mg/kg; AB50 [21]: 4 mg/kg
	c1cnc(N2CCN(CCCN3CCc4c([nH]c5ccccc45)C3)CC2)nc1		AB50 [22]: 35 mg/kg
	c1ccc2c3c([nH]c2c1)CN(CCCc1ccncc1)CC3		AB50 [23]: 40 mg/kg
8%	COc1ccc2[nH]c3c(c2c1)CCN(CCc1ccccn1)C3		
38%	c1ccc(CCN2CCc3c([nH]c4ccccc34)C2)nc1		AB50 [24]: 23 mg/kg
7%	c1coc(CN2CCc3c([nH]c4ccccc34)C2)c1		
	c1ccc2c(CCCCN3CCc4c([nH]c5ccccc45)C3)ccnc2c1		AB50 [25]: 18 mg/kg
	c1ccc(CCN2CCc3c(n(CCCN4CCCCC4)c4ccccc34)C2)nc1	>40 mg/kg	inhibition [6]: 9%
	c1ccc2c(c1)c1c(n2CCCN2CCCCC2)CN(CCCc2ccncc2)CC1	>40 mg/kg	inhibition [6]: 22%
